Results taken from ChEMBL document CHEMBL6083256, “Design, synthesis and biological evaluation of novel oxazole derivatives as potential hypoglycemic agents” (Bioorg Med Chem, 2024).
Blank lines part the entries; values can stand above or below the compound they belong to.

Tests used:
3T3-L1 [1] = experiment: Induction of glucose consumption in starved mouse 3T3-L1 cells incubated for 24 hrs; format: functional, cell-based; settings: dose 1-25 µM
HepG2 [2] = experiment: Induction of glucose consumption in starved human HepG2 cells incubated for 24 hrs; format: functional, cell-based; settings: dose 1-25 µM
Mus musculus = experiment: Hypoglycemic activity in overnight-fasted C57BL/6J mouse assessed as reduction in blood glucose level at 80 mg/kg, ip pretreated for 30 mins followed by glucose administration measured upto 120 mins by OGTT analysis; format: functional, organism-based; settings: time 150.0 min
3T3-L1 [3] = experiment: Cytotoxicity against mouse 3T3-L1 cells at 100 uM incubated for 72 hrs by CCK8 assay; format: toxicity, cell-based; settings: 3t3-l1, 72 h
HepG2 [4] = experiment: Cytotoxicity against human HepG2 cells at 100 uM incubated for 72 hrs by CCK8 assay; format: toxicity, cell-based; settings: hepg2, 72 h
HepG2 [5] = experiment: Induction of glucose consumption in starved human HepG2 cells assessed as fold increase in activity at 20 uM incubated for 24 hrs relative to control; format: functional
3T3-L1 [6] = experiment: Cytotoxicity against mouse 3T3-L1 cells assessed as change in cell morphology at 3.125 to 100 uM incubated for 72 hrs; format: toxicity, cell-based; settings: 3t3-l1, 72 h, dose 3.125-100 µM
[7] = Cytotoxicity against mouse 3T3-L1 cells incubated for 72 hrs by CCK8 assay; format: toxicity, cell-based
[8] = Cytotoxicity against human HepG2 cells incubated for 72 hrs by CCK8 assay; format: toxicity, cell-based
HepG2 [9] = experiment: Cytotoxicity against human HepG2 cells assessed as change in cell morphology at 3.125 to 100 uM incubated for 72 hrs; format: toxicity, cell-based; settings: hepg2, 72 h, dose 3.125-100 µM
3T3-L1 [10] = experiment: Cytotoxicity against mouse 3T3-L1 cells at 25 uM incubated for 72 hrs by CCK8 assay; format: toxicity, cell-based; settings: 3t3-l1, 72 h
HepG2 [11] = experiment: Cytotoxicity against human HepG2 cells at 25 uM incubated for 72 hrs by CCK8 assay; format: toxicity, cell-based; settings: hepg2, 72 h
HepG2 [12] = experiment: Induction of glucose consumption in starved human HepG2 cells assessed as fold increase in activity at 2 mM incubated for 24 hrs relative to control; format: functional
CYP1A2 = target: T1, CYP1A2 (Homo sapiens, UniProt P05177); experiment: Inhibition of CYP1A2 in human liver microsomes at 10 uM relative to control; format: ADME, Microsome
T1 sequence (P05177 whole entry): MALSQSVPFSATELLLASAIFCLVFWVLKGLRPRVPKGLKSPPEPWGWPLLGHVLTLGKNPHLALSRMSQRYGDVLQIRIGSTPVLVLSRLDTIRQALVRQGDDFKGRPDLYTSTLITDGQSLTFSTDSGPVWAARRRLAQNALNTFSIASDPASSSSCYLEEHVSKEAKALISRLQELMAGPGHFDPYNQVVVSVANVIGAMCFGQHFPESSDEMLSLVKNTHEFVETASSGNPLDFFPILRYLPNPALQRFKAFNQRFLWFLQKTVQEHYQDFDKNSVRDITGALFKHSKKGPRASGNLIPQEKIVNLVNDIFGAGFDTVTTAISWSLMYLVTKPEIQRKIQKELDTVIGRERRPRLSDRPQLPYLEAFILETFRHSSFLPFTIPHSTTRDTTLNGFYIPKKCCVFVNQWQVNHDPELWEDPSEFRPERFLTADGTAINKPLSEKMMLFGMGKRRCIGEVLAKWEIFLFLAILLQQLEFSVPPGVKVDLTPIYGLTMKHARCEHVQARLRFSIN

CYP3A4 = CYP3A4 (Homo sapiens, UniProt P08684); experiment: Inhibition of CYP3A4 in human liver microsomes at 10 uM relative to control; format: ADME, Microsome
Chain of CYP3A4 (P08684 whole entry): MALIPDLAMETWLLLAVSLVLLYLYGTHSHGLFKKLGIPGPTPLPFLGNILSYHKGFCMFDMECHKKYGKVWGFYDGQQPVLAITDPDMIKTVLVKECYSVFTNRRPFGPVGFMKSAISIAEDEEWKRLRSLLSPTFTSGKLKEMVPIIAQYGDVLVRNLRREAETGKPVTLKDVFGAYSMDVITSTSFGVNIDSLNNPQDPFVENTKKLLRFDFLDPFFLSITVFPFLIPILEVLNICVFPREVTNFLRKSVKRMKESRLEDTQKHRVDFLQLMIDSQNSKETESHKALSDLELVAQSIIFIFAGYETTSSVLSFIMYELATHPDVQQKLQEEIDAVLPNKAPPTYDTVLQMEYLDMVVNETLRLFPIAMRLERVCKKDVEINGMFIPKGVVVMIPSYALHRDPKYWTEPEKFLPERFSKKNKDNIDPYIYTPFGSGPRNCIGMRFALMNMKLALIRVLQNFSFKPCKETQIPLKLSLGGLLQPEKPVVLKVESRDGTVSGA

[13] = target: AMP-activated protein kinase, AMPK (Homo sapiens) (UniProt P54646+O43741+P54619+Q9UGJ0+Q9Y478+Q13131+Q9UGI9); experiment: Induction of AMPK phosphorylation at Thr172 in human HepG2 cells incubated for 24 hrs by Western blot analysis; format: cell-based; settings: filed as activator
CYP2C9 = CYP2C9 (Homo sapiens, UniProt P11712); experiment: Inhibition of CYP2C9 in human liver microsomes at 10 uM relative to control; format: ADME, Microsome
Chain of CYP2C9 (P11712 whole entry): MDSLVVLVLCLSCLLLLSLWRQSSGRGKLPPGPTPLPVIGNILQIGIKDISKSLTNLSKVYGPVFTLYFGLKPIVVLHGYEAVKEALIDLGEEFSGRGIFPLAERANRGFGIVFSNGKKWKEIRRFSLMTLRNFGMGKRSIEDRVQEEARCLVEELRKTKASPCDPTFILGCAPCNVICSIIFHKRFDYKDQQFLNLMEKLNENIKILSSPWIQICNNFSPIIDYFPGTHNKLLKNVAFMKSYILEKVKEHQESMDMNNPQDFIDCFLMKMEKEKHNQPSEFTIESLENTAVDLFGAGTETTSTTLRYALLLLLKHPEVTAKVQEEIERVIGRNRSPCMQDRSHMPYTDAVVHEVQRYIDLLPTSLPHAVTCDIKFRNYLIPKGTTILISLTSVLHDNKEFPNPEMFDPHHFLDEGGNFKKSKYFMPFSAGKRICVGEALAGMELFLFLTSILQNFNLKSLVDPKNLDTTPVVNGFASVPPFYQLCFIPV

CYP2C19 = CYP2C19 (Homo sapiens, UniProt P33261); experiment: Inhibition of CYP2C19 in human liver microsomes at 10 uM relative to control; format: ADME, Microsome
Chain of CYP2C19 (P33261 whole entry): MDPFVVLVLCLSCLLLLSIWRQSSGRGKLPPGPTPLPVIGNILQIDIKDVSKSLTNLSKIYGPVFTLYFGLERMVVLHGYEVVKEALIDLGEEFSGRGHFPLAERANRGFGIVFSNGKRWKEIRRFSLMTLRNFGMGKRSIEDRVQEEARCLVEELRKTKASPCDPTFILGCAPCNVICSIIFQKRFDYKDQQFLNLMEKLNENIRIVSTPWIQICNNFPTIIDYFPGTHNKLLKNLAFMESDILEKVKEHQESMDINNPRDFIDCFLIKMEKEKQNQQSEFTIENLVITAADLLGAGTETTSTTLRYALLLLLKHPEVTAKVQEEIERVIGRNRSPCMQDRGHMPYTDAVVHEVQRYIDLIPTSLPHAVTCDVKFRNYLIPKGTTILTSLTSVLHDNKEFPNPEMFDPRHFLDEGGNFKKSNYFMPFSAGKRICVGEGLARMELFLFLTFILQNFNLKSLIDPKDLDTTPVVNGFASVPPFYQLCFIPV

CYP2D6 = CYP2D6 (Homo sapiens, UniProt P10635); experiment: Inhibition of CYP2D6 in human liver microsomes at 10 uM relative to control; format: ADME, Microsome
Chain of CYP2D6 (P10635 whole entry): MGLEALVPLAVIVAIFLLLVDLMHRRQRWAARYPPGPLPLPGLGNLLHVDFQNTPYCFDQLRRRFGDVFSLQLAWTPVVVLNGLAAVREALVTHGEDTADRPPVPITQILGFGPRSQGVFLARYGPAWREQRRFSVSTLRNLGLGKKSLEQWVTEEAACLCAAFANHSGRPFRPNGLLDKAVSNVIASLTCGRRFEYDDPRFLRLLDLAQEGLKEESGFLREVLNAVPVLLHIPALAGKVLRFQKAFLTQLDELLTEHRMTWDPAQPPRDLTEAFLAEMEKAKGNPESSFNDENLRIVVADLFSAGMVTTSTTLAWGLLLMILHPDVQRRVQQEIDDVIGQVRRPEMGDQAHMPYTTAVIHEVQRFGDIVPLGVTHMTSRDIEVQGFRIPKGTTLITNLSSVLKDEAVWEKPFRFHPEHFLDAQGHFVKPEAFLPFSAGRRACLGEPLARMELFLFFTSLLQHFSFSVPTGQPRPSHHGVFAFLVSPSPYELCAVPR

Compound: NC1CCN(Cc2coc(-c3ccc(C(F)(F)F)cc3)n2)CC1
Activity (3T3-L1 [1]): Dose-dependent-effect
Activity (HepG2 [2]): Dose-dependent-effect
Activity (Mus musculus): Not active; Exhibited Minimal Activity
Activity (3T3-L1 [3]): Toxic
Activity (HepG2 [4]): Toxic
fold change (FC) (HepG2 [5]): 1.6

Compound: COc1ccc(-c2nc(CN3CCC(CO)CC3)co2)cc1
fold change (FC) (HepG2 [5]): 1.05

Compound: CS(=O)(=O)N1CCN(Cc2coc(-c3ccc(C(F)(F)F)cc3)n2)CC1
Activity (3T3-L1 [1]): Dose-dependent-effect
Activity (3T3-L1 [6]): Non-toxic
IC50 at 72 h [7]: > 100 µM
IC50 at 72 h [8]: > 100 µM
Activity (HepG2 [2]): Dose-dependent-effect
Activity (HepG2 [9]): Non-toxic
Activity (Mus musculus): Not active; Exhibited Minimal Activity
Activity (3T3-L1 [10]): Non-toxic
fold change (FC) (HepG2 [5]): 1.63
Activity (HepG2 [11]): Non-toxic

Compound: CN(C)C(=N)NC(=N)N [METFORMIN]
fold change (FC) (HepG2 [12]): 1.57

Compound: OCC1CCCN(Cc2coc(-c3ccc(C(F)(F)F)cc3)n2)C1 (configuration not stated)
fold change (FC) (HepG2 [5]): 1.42

Compound: Cc1ccc(-c2nc(CN3CCC(CO)CC3)co2)cc1
fold change (FC) (HepG2 [5]): 1.39

Compound: CS(=O)(=O)C1CCN(Cc2coc(-c3ccc(C(F)(F)F)cc3)n2)CC1
fold change (FC) (HepG2 [5]): 1.39

Compound: OCC1CCN(Cc2coc(-c3ccc(F)cc3)n2)CC1
fold change (FC) (HepG2 [5]): 1.27

Compound: OCC1CCN(Cc2coc(-c3cccc(Cl)c3)n2)CC1
fold change (FC) (HepG2 [5]): 1.05

Compound: CN1CCN(Cc2coc(-c3ccc(C(F)(F)F)cc3)n2)CC1
fold change (FC) (HepG2 [5]): 1.5

Compound: OC1CCCN(Cc2coc(-c3ccc(C(F)(F)F)cc3)n2)C1 (configuration not stated)
fold change (FC) (HepG2 [5]): 1.49

Compound: CCOC(=O)C1CCN(Cc2coc(-c3ccc(C(F)(F)F)cc3)n2)CC1
fold change (FC) (HepG2 [5]): 1.34

Compound: CC(=O)N1CCN(Cc2coc(-c3ccc(C(F)(F)F)cc3)n2)CC1
fold change (FC) (HepG2 [5]): 1.21

Compound: FC(F)(F)c1ccc(-c2nc(CN3CCOCC3)co2)cc1
fold change (FC) (HepG2 [5]): 1.52

Compound: OCC1CCN(Cc2coc(-c3cccc(F)c3)n2)CC1
fold change (FC) (HepG2 [5]): 1.12

Compound: OCC1CCN(Cc2coc(-c3ccc(Cl)cc3)n2)CC1
fold change (FC) (HepG2 [5]): 1.24

Compound: COc1cccc(-c2nc(CN3CCC(CO)CC3)co2)c1
fold change (FC) (HepG2 [5]): 1.27

Compound: CC(C)(C)OC(=O)N1CCN(Cc2coc(-c3ccc(C(F)(F)F)cc3)n2)CC1
fold change (FC) (HepG2 [5]): 1.46

Compound: Cc1cccc(-c2nc(CN3CCC(CO)CC3)co2)c1
fold change (FC) (HepG2 [5]): 1.25

Compound: CCOC1CCN(Cc2coc(-c3ccc(C(F)(F)F)cc3)n2)CC1
fold change (FC) (HepG2 [5]): 1.42

Compound: COC1CCN(Cc2coc(-c3ccc(C(F)(F)F)cc3)n2)CC1
Activity (3T3-L1 [1]): Dose-dependent-effect
Activity (3T3-L1 [6]): Non-toxic
IC50 at 72 h [7]: > 100 µM
IC50 at 72 h [8]: > 100 µM
Activity (HepG2 [2]): Dose-dependent-effect
Activity (HepG2 [9]): Non-toxic
Activity (Mus musculus): Not active; Exhibited Weak Activity
Activity (3T3-L1 [10]): Non-toxic
fold change (FC) (HepG2 [5]): 1.61
Activity (HepG2 [11]): Non-toxic

Compound: OCC1CCN(Cc2coc(-c3ccccc3)n2)CC1
fold change (FC) (HepG2 [5]): 1.36

inhibition at 10 µM (CYP1A2): 16.2%
inhibition at 10 µM (CYP3A4): 2.1%
Activity [13]: Dose-dependent-effect
inhibition at 10 µM (CYP2C9): 5.8%
inhibition at 10 µM (CYP2C19): 21.7%
inhibition at 10 µM (CYP2D6): 4.6%
Compound: COC(=O)C1CCN(Cc2coc(-c3ccc(C(F)(F)F)cc3)n2)CC1
Activity (3T3-L1 [1]): Dose-dependent-effect
Activity (3T3-L1 [6]): Non-toxic
IC50 at 72 h [7]: > 100 µM
IC50 at 72 h [8]: > 100 µM
Activity (HepG2 [2]): Dose-dependent-effect
Activity (HepG2 [9]): Non-toxic
Activity (Mus musculus): Active; Exhibited Strongest Activity Than Other Tested Compounds
Activity (3T3-L1 [10]): Non-toxic
fold change (FC) (HepG2 [5]): 1.6
Activity (HepG2 [11]): Non-toxic

Compound: OCC1CCN(Cc2coc(-c3ccc(C(F)(F)F)cc3)n2)CC1
fold change (FC) (HepG2 [5]): 1.43

Compound: OCC1CCN(Cc2coc(-c3cc(F)cc(F)c3)n2)CC1
fold change (FC) (HepG2 [5]): 0.95

Compound: OC1CCN(Cc2coc(-c3ccc(C(F)(F)F)cc3)n2)CC1
fold change (FC) (HepG2 [5]): 1.42

Compound: COCC1CCN(Cc2coc(-c3ccc(C(F)(F)F)cc3)n2)CC1
fold change (FC) (HepG2 [5]): 1.2

Compound: COC1CCCN(Cc2coc(-c3ccc(C(F)(F)F)cc3)n2)C1 (configuration not stated)
fold change (FC) (HepG2 [5]): 1.05

Compound: OCC1CCN(Cc2coc(-c3cccc(C(F)(F)F)c3)n2)CC1
fold change (FC) (HepG2 [5]): 1.4
